Data from patent publication US8557875B2, “Gene transfer agent composition containing polyamidoamine dendron” (Public University Corporation Osaka Prefecture University, priority 2009, dated 2013).

Tests used:
NHDF-ad cells = assay: Toxicity evaluation, WST-8 kit (Example 6); assay type: cell-based, human; settings: WST-8, 48 hours
Procedure: (NHDF-ad cells: 3.5×10^3 cells/well·DMEM+10% FBS (Pe/St) 70 μl)
(i) A 20 mM Tris-HCl (pH 7.4) buffer was dispensed into two tubes at, individually, 54.25 μl (for DL-G1) and 35.5 μl (for DL-U2).
(ii) 1.0 μg of plasmid DNA (pEGFP-luc+) was added to each of the two tubes prepared in step (i) at 2 μl (1.0 μg), and the contents were stirred.
(iii) To the prepared plasmid DNA solutions was added 37.5 μl of a DL-U2 liposome solution (N/P ratio=6), and the whole was thoroughly mixed using a vortex and incubated at room temperature for 30 minutes.
(iv) 25 μl of an Opti-MEM(R) I Reduced-Serum Medium was further added, and the whole was thoroughly mixed and allowed to stand at room temperature for 5 minutes.
(v) 2.8 and 7.0 μl per well of the DL-plasmid DNA complex solutions was individually added to three wells, and the contents were mixed (the addition amount was one-seventh the addition amount in the luciferase activity measurement).
(vi) The cells were incubated at 37° C. in 5% CO2 for 4 hours, and the growth medium was replaced.
(vii) 48 hours later, toxicity evaluation was performed according to the protocol of a WST-8 kit (Kishida Chemical Co., Ltd.) (a well to which no lipoplex solution was added was defined as 100%). […]

COS-7 = assay: Cytotoxic evaluation on gene transfer (Example 5); assay type: cell-based; settings: compared with Lipofectamine LTX and FuGENE HD

For `CCCCCCCC/C=C\CCCCCCCCN(CCCCCCCC/C=C\CCCCCCCC)CCC(=O)NCCN(CCC(=O)NCCN)CCC(=O)NCCN` (racemic) [DL-G1-U2], the “cytotoxicity on GFP gene transfer” value (NHDF-ad cells) was “lower than those of most of the commercially available transfer agents” and the cytotoxicity (COS-7) was “lower cytotoxicity”.
